Read-outs that look alike come from different tables or passages of the source.
What was measured:
Assay in all cases: Kinase Profiler, residual kinase activity
Type in all cases: biochemical
Details in all cases: read-out: percentage of the remaining kinase activity
[1] = target: T1, AURKA (Homo sapiens, UniProt O14965)
T1 sequence (O14965 1-403): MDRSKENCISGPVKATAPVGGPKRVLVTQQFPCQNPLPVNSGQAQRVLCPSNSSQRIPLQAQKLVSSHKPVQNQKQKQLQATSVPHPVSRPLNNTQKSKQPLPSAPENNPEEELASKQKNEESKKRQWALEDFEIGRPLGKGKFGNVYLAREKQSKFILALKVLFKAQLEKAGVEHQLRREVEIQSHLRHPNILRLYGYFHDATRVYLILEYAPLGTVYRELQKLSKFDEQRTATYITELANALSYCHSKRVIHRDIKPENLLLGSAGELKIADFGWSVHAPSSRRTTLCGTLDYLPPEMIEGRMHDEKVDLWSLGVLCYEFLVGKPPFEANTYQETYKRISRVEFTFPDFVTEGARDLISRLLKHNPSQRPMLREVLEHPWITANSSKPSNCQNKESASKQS
Source text: (§1) Kinase Profiler services provided by […]. (http://www.reactionbiology.com) were used to analyze the data of the 9 type-S protein kinase inhibitors against the 40 types of protein kinases.

[2] = target: T2, GSG2 (Homo sapiens, UniProt Q8TF76)
T2 sequence (Q8TF76 1-798): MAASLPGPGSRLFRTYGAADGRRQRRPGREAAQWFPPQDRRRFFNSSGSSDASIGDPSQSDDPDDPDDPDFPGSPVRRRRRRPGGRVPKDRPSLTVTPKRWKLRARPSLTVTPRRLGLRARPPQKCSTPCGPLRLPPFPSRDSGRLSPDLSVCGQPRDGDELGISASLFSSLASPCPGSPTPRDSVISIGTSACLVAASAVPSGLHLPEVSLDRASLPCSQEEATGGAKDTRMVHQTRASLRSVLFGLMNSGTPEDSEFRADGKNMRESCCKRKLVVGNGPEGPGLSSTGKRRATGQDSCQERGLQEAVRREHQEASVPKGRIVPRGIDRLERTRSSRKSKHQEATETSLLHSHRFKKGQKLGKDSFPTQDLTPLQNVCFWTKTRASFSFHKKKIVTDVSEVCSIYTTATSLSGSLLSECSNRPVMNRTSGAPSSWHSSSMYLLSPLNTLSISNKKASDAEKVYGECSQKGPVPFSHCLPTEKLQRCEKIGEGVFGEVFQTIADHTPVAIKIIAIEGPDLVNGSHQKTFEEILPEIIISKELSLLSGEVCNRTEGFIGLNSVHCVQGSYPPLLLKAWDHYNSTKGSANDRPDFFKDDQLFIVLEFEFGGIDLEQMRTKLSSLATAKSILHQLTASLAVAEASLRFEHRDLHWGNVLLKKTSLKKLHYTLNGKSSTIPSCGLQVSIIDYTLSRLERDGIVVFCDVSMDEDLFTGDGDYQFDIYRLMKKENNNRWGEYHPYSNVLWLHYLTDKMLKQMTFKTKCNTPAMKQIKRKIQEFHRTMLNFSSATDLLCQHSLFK
Source text: as §1

[3] = target: T3, MAP2K1 (Homo sapiens, UniProt Q02750)
T3 construct: purchased Research Biology Corp. (http://www.reactionbiology.com)
T3 sequence (Q02750 whole entry): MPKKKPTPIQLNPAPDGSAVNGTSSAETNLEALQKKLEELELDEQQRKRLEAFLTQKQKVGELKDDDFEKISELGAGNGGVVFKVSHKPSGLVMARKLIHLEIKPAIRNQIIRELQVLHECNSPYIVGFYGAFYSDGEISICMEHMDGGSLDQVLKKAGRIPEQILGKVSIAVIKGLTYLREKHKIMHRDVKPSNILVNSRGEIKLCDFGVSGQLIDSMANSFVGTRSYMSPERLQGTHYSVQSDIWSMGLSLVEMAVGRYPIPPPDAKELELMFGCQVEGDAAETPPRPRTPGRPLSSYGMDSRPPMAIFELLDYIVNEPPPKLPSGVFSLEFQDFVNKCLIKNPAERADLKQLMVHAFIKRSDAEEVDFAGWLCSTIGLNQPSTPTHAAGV
Source text: as §1

[4] = target: T4, MERTK (Homo sapiens, UniProt Q12866)
T4 sequence (Q12866 21-999): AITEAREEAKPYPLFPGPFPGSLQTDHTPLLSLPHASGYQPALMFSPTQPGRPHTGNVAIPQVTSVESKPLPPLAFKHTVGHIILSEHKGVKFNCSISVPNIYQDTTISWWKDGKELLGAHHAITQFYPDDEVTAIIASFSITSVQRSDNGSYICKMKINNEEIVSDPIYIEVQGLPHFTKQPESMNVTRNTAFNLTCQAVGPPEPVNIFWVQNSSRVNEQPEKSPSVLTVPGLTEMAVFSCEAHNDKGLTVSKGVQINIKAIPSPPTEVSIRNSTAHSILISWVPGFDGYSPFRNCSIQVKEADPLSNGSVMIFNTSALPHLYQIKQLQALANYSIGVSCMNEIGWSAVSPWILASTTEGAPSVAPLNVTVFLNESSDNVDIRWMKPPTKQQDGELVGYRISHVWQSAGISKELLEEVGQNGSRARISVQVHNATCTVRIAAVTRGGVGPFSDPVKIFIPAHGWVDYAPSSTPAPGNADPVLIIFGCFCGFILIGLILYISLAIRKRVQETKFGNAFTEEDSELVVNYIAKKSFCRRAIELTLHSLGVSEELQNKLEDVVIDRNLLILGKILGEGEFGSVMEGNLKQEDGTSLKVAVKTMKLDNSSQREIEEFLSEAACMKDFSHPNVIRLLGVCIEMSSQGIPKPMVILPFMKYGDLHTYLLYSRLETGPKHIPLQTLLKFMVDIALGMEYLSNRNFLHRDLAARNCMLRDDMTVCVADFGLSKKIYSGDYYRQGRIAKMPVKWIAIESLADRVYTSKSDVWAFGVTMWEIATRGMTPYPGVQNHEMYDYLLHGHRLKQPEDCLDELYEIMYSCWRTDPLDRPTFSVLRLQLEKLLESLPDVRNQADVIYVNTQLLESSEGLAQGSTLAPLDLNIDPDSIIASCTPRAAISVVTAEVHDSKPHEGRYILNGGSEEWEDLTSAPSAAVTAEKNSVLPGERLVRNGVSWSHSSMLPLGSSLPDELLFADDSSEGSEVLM
Source text: as §1

[5] = target: CHEK2 (Homo sapiens, UniProt O96017)
CHEK2, sequence (O96017 whole entry): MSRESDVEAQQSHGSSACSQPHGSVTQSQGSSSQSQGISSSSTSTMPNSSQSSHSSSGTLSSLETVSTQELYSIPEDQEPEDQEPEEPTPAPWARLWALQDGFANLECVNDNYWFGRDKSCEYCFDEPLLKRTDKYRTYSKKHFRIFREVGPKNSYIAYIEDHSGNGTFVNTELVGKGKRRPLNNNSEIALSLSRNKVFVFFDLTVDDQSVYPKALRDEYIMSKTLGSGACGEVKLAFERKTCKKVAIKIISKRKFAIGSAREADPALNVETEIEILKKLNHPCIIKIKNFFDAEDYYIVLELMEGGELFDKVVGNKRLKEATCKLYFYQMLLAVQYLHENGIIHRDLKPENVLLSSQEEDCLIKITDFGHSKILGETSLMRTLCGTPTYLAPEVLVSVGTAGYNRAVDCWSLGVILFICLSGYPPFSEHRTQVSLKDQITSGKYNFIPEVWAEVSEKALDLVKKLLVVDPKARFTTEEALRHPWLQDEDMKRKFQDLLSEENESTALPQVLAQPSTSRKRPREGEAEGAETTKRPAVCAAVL

[6] = target: FGFR1 (Homo sapiens, UniProt P11362)
FGFR1, sequence (P11362 22-822): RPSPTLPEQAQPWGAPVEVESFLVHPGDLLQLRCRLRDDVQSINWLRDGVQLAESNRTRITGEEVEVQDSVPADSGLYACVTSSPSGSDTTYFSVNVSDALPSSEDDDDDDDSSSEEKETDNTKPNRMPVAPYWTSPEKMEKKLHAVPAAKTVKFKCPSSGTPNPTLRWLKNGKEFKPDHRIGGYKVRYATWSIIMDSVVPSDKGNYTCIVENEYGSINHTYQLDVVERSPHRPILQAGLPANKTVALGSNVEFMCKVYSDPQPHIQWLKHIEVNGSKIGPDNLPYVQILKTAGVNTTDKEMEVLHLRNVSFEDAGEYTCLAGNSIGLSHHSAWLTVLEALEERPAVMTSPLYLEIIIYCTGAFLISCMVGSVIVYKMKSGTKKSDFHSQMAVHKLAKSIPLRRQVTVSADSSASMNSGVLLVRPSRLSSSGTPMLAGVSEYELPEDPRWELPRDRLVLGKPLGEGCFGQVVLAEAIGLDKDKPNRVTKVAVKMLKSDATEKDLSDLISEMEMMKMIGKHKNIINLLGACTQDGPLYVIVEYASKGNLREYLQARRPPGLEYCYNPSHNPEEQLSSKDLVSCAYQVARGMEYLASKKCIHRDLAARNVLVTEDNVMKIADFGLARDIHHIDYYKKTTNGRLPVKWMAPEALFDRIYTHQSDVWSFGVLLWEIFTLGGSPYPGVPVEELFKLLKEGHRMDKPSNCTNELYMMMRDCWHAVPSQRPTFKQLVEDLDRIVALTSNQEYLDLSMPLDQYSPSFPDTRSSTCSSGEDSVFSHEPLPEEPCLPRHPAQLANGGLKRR

[7] = target: ABL1 (Homo sapiens, UniProt P00519)
ABL1, sequence (P00519 whole entry): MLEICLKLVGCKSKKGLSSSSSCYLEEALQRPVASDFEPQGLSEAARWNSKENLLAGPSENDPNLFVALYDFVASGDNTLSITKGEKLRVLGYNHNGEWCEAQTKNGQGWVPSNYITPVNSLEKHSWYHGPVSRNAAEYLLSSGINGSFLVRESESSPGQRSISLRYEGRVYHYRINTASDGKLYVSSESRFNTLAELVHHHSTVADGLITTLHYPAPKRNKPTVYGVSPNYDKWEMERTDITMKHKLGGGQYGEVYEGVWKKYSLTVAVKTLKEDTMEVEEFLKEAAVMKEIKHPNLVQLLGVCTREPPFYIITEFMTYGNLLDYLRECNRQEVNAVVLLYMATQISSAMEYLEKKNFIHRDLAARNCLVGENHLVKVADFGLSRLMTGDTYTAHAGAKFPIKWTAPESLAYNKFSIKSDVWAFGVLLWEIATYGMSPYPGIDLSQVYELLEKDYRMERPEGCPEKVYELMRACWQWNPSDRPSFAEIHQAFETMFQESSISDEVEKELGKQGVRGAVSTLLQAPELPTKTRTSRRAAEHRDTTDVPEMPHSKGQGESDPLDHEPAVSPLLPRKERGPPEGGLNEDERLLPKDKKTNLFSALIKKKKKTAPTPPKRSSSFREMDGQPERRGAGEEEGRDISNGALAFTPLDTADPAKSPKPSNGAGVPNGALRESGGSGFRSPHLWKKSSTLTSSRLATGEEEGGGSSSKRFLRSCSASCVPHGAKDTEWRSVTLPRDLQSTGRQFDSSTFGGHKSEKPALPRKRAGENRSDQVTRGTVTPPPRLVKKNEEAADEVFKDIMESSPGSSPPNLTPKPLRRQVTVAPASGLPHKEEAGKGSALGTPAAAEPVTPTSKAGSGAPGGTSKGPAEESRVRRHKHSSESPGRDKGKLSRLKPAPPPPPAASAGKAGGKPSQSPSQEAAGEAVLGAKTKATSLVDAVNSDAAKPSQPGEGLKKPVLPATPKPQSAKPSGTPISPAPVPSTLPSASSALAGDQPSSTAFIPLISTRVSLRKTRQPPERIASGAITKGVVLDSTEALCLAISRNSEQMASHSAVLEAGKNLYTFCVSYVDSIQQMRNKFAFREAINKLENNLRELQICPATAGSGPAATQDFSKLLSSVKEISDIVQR

[8] = target: T5, RPS6KB1 (Homo sapiens, UniProt P23443)
T5 construct: purchased Research Biology Corp. (http://www.reactionbiology.com)
T5 sequence (P23443 whole entry): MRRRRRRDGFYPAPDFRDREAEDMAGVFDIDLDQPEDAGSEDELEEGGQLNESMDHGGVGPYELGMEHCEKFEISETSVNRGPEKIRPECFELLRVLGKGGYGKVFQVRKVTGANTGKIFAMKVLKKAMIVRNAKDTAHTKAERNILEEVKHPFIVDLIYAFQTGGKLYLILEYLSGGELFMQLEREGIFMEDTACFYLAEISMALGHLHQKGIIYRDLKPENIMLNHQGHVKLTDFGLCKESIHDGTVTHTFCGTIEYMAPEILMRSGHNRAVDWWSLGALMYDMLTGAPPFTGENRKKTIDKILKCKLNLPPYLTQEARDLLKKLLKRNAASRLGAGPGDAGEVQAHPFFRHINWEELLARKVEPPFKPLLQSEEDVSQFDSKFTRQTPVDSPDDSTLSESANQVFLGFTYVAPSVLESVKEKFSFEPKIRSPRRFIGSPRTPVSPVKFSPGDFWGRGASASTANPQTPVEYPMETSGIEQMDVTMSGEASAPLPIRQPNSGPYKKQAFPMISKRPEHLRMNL

[9] = target: CLK1 (Homo sapiens, UniProt P49759)
CLK1, sequence (P49759 whole entry): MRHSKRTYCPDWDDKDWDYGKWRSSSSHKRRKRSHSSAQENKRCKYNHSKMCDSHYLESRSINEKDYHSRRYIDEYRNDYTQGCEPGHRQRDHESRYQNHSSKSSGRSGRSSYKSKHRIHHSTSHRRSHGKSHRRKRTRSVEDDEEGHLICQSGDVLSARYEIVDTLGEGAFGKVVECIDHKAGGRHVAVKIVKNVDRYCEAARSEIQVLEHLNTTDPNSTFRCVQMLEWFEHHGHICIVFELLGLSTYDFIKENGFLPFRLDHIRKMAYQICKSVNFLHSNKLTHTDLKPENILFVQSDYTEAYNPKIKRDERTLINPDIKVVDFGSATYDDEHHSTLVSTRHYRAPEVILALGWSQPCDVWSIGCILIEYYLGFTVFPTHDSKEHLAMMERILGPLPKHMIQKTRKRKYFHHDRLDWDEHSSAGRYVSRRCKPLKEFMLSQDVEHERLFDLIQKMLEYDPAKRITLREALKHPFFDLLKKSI
Source text: as §1

remaining activity at 0.5 µM ([2]; GSG2, inhibitor at 500 nM) | remaining activity at 0.5 µM ([3]; MAP2K1, inhibitor at 500 nM) | remaining activity at 0.5 µM ([5]; CHEK2, inhibitor at 500 nM) | remaining activity at 0.5 µM ([6]; FGFR1, inhibitor at 500 nM) | remaining activity at 0.5 µM ([7]; ABL1, inhibitor at 500 nM) | remaining activity at 0.5 µM ([8]; RPS6KB1, inhibitor at 500 nM) | remaining activity at 0.5 µM ([1]; AURKA, inhibitor at 500 nM) | remaining activity at 0.5 µM ([9]; CLK1, inhibitor at 500 nM) | remaining activity at 0.5 µM ([4]; MERTK, inhibitor at 500 nM) | SMILES | remaining activity at 0.5 µM [1] | remaining activity at 0.5 µM [4] | remaining activity at 0.5 µM [5] | remaining activity at 0.5 µM [6] | remaining activity at 0.5 µM [7] | remaining activity at 0.5 µM [8] | remaining activity at 0.5 µM [9] | remaining activity at 0.5 µM [2] | remaining activity at 0.5 µM [3]
87.8% | 66.1% | 37.7% | 25.7% | 84.9% | 11.1% | 11.2% | 73.7% | 52.3% | COC1C(N(C)Cc2ccc(-c3ccccc3)cc2)CC2OC1(C)n1c3ccccc3c3c4c(c5c6ccccc6n2c5c31)C(=O)NC4 (stereo not shown) [Compound 9] |  |  |  |  |  |  |  |  | 
 |  |  |  |  |  |  |  |  | COC1C(N(C)CCOc2cccc([N+](=O)[O-])c2)CC2OC1(C)n1c3ccccc3c3c4c(c5c6ccccc6n2c5c31)C(=O)NC4 (stereo not shown) [Compound 8] | 12.1% | 63.1% | 46.7% | 30.1% | 92.5% | 11.8% | 74.8% | 89.8% | 72%
69.9% | 79.8% | 30.3% | 5.1% | 77.6% | 7.9% | 2.1% | 15.9% | 26.7% | COC1C(N(C)C(=O)C(N)Cc2c[nH]cn2)CC2OC1(C)n1c3ccccc3c3c4c(c5c6ccccc6n2c5c31)C(=O)NC4 (stereo not shown) [Compound 1] |  |  |  |  |  |  |  |  | 
102% | 110% | 80.4% | 53.3% | 107% | 15.2% | 19.7% | 98.6% | 88.1% | COC1C(N(C)C(=O)C(N)Cc2ccc(OC(C)(C)C)cc2)CC2OC1(C)n1c3ccccc3c3c4c(c5c6ccccc6n2c5c31)C(=O)NC4 (stereo not shown) [Compound 4] |  |  |  |  |  |  |  |  | 
69.9% | 74.1% | 47.2% | 3.2% | 68% | 9.2% | 0.9% | 32.3% | 40% | COC1C(N(C)C(=O)C(N)CCC(=O)O)CC2OC1(C)n1c3ccccc3c3c4c(c5c6ccccc6n2c5c31)C(=O)NC4 (stereo not shown) [Compound 7] |  |  |  |  |  |  |  |  | 
88% | 101% | 82.7% | 29.5% | 97.6% | 15% | 5.3% | 86.6% | 85.2% | COC1C(N(C)C(=O)C(N)CCC(=O)OC(C)(C)C)CC2OC1(C)n1c3ccccc3c3c4c(c5c6ccccc6n2c5c31)C(=O)NC4 (stereo not shown) [Compound 6] |  |  |  |  |  |  |  |  | 
89.5% | 103% | 73.2% | 16.6% | 104% | 11.8% | 4.9% | 29.6% | 69.2% | COC1C(N(C)C(=O)C(N)Cc2ccc(O)cc2)CC2OC1(C)n1c3ccccc3c3c4c(c5c6ccccc6n2c5c31)C(=O)NC4 (stereo not shown) [Compound 5] |  |  |  |  |  |  |  |  | 
110% | 105% | 95.8% | 101% | 109% | 72.4% | 86.2% | 107% | 96.8% | COC1C(N(C)C(=O)C(N)Cc2cn(C(=O)OC(C)(C)C)c3ccccc23)CC2OC1(C)n1c3ccccc3c3c4c(c5c6ccccc6n2c5c31)C(=O)NC4 (stereo not shown) [Compound 2] |  |  |  |  |  |  |  |  | 

SMILES | remaining activity at 0.5 µM ([2]; GSG2, inhibitor at 500 nM) | remaining activity at 0.5 µM ([3]; MAP2K1, inhibitor at 500 nM) | remaining activity at 0.5 µM ([5]; CHEK2, inhibitor at 500 nM) | remaining activity at 0.5 µM ([6]; FGFR1, inhibitor at 500 nM) | remaining activity at 0.5 µM ([7]; ABL1, inhibitor at 500 nM) | remaining activity at 0.5 µM ([8]; RPS6KB1, inhibitor at 500 nM) | remaining activity at 0.5 µM ([1]; AURKA, inhibitor at 500 nM) | remaining activity at 0.5 µM ([9]; CLK1, inhibitor at 500 nM) | remaining activity at 0.5 µM ([4]; MERTK, inhibitor at 500 nM) | remaining activity at 0.5 µM [1] | remaining activity at 0.5 µM [4] | remaining activity at 0.5 µM [5] | remaining activity at 0.5 µM [6] | remaining activity at 0.5 µM [7] | remaining activity at 0.5 µM [8] | remaining activity at 0.5 µM [9] | remaining activity at 0.5 µM [2] | remaining activity at 0.5 µM [3]
CN[C@@H]1C[C@H]2O[C@@](C)([C@@H]1OC)n1c3ccccc3c3c4c(c5c6ccccc6n2c5c31)C(=O)NC4 [STU, staurosporine, reference compound] | 9% | 11.5% |  |  |  |  |  |  |  | 0.2% | 1.1% |  |  |  |  |  |  | 

From patent US9738660B2, “Selective inhibitors for protein kinases and pharmaceutical composition and use thereof” (National Chiao Tung University, priority 2014, dated 2017)
